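Each compound was tested at five concentrations against cells in 96-well plates for 48 hours. The concentration for 50% growth inhibition is given as GI50. TGI: concentration producing complete growth inhibition.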
How the values were obtained:
Assay in all cases: NCI-60 cell line screen, 48 h
[1] = test system: NCI-H460 lung
[2] = test system: HS 578T breast
[3] = test system: CCRF-CEM leukemia
[4] = test system: KM12 colon
[5] = test system: UACC-62 melanoma
[6] = test system: HL-60(TB) leukemia
[7] = test system: IGROV1 ovarian
[8] = test system: OVCAR-8 ovarian
[9] = test system: T-47D breast
[10] = test system: COLO 205 colon
[11] = test system: NCI-H522 lung
[12] = test system: MOLT-4 leukemia
[13] = test system: DU-145 prostate
[14] = test system: TK-10 renal
[15] = test system: SNB-75 CNS
[16] = test system: OVCAR-4 ovarian
[17] = test system: SW-620 colon
[18] = test system: SK-MEL-2 melanoma
[19] = test system: MDA-MB-435
[20] = test system: ACHN renal
[21] = test system: 786-0 renal
[22] = test system: PC-3 prostate
[23] = test system: SR leukemia
[24] = test system: NCI-H226 lung
[25] = test system: SK-MEL-5 melanoma
[26] = test system: CAKI-1 renal
[27] = test system: UO-31 renal
[28] = test system: OVCAR-5 ovarian
[29] = test system: RXF 393 renal
[30] = test system: HOP-92 NSCLC
[31] = test system: EKVX NSCLC
[32] = test system: HCC-2998 colon
[33] = test system: M14 melanoma
[34] = test system: HCT-15 colon
[35] = test system: SK-MEL-28 melanoma
[36] = test system: HT29 colon
[37] = test system: NCI-H23 lung
[38] = test system: MALME-3M melanoma
[39] = test system: K-562 leukemia
[40] = test system: U251 CNS
[41] = test system: SF-295 CNS
[42] = test system: MDA-MB-231 breast
[43] = test system: RPMI-8226 leukemia
[44] = test system: BT-549 breast
[45] = test system: SK-OV-3 ovarian
[46] = test system: HCT-116 colon
[47] = test system: SF-268 CNS
[48] = test system: MCF7 breast
[49] = test system: A549 NSCLC
[50] = test system: HOP-62 NSCLC
[51] = test system: SN12C renal
[52] = test system: A498 renal
[53] = test system: NCI/ADR-RES ovarian
[54] = test system: UACC-257 melanoma
[55] = test system: OVCAR-3 ovarian
[56] = test system: SF-539 CNS
[57] = test system: LOX IMVI melanoma
[58] = test system: SNB-19 CNS

Question: What does the source list for `O=C(NNc1nc2cc(F)c(F)cc2n2cccc12)c1ccncn1`?
Answer: GI50 [1]: 161 nM; TGI [1]: 9460 nM; GI50 [2]: 2940 nM; TGI [2]: 20400 nM; GI50 [3]: 142 nM; TGI [3]: > 30000 nM; GI50 [4]: 331 nM; TGI [4]: 12500 nM; GI50 [5]: 333 nM; TGI [5]: 5140 nM; GI50 [6]: 390 nM; TGI [6]: > 14800 nM; GI50 [7]: 206 nM; TGI [7]: 4870 nM; GI50 [8]: 253 nM; TGI [8]: 9550 nM; GI50 [9]: 353 nM; TGI [9]: 5170 nM; GI50 [10]: 313 nM; TGI [10]: 4060 nM; GI50 [11]: 803 nM; TGI [11]: 11600 nM; GI50 [12]: 179 nM; TGI [12]: > 30000 nM; GI50 [13]: 400 nM; TGI [13]: 18200 nM; GI50 [14]: 547 nM; TGI [14]: 5180 nM; GI50 [15]: 365 nM; TGI [15]: 6350 nM; GI50 [16]: 180 nM; TGI [16]: 3610 nM; GI50 [17]: 313 nM; TGI [17]: 12200 nM; GI50 [18]: 3520 nM; TGI [18]: 11500 nM; GI50 [19]: 1120 nM; TGI [19]: 6960 nM; GI50 [20]: 187 nM; TGI [20]: 3930 nM; GI50 [21]: 1010 nM; TGI [21]: 6640 nM; GI50 [22]: 309 nM; TGI [22]: > 13400 nM; GI50 [23]: 146 nM; TGI [23]: > 12300 nM; GI50 [24]: 381 nM; TGI [24]: 5660 nM; GI50 [25]: 745 nM; TGI [25]: 5120 nM; GI50 [26]: 286 nM; TGI [26]: 4220 nM; GI50 [27]: 140 nM; TGI [27]: 4190 nM; GI50 [28]: 1190 nM; TGI [28]: 11400 nM; GI50 [29]: 834 nM; TGI [29]: 5160 nM; GI50 [30]: 697 nM; TGI [30]: 6380 nM; GI50 [31]: 255 nM; TGI [31]: 4930 nM; GI50 [32]: 452 nM; TGI [32]: 4550 nM; GI50 [33]: 370 nM; TGI [33]: 8600 nM; GI50 [34]: 119 nM; TGI [34]: 5520 nM; GI50 [35]: 771 nM; TGI [35]: 6350 nM; GI50 [36]: 395 nM; TGI [36]: 15300 nM; GI50 [37]: 1260 nM; TGI [37]: 11500 nM; GI50 [38]: 1500 nM; TGI [38]: 6770 nM; GI50 [39]: 173 nM; TGI [39]: > 30000 nM; GI50 [40]: 182 nM; TGI [40]: 7020 nM; GI50 [41]: 156 nM; TGI [41]: 3870 nM; GI50 [42]: 839 nM; TGI [42]: 6950 nM; GI50 [43]: 571 nM; TGI [43]: > 20900 nM; GI50 [44]: 1400 nM; TGI [44]: 8940 nM; GI50 [45]: 522 nM; TGI [45]: 5160 nM; GI50 [46]: 217 nM; TGI [46]: 5430 nM; GI50 [47]: 408 nM; TGI [47]: 9390 nM; GI50 [48]: 235 nM; TGI [48]: 3930 nM; GI50 [49]: 275 nM; TGI [49]: 20200 nM; GI50 [50]: 199 nM; TGI [50]: 6660 nM; GI50 [51]: 678 nM; TGI [51]: 9340 nM; GI50 [52]: 1140 nM; TGI [52]: 5620 nM; GI50 [53]: 225 nM; TGI [53]: 6330 nM; GI50 [54]: 926 nM; TGI [54]: 5880 nM; GI50 [55]: 301 nM; TGI [55]: 5160 nM; GI50 [56]: 596 nM; TGI [56]: 6300 nM; GI50 [57]: 191 nM; TGI [57]: 5110 nM; GI50 [58]: 417 nM; TGI [58]: 10600 nM

— PubChem BioAssay (NCI)
